Source: patent US20240043435A1, “TYK-2 INHIBITOR” (BEIGENE, LTD., priority 2020, published 2024)

Tests used:
[1] = target: T1, TYK2-JH2 (aa 575-869, in-house) protein (Homo sapiens, UniProt P29597); test: TYK2-JH2 biochemical assay (HTRF probe displacement); format: binding; conditions: Biochemical assay; read-out: TYK2-JH2 IC50
T1 construct: TYK2-JH2 (aa 575-869, in-house) protein; made in house
Procedure, shortened: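 Recombinant TYK2-JH2 (0.2 nM) was pre-incubated 0.5 h at room temperature with compounds (10 doses, 5-fold dilution; 500× DMSO stocks from 500 uM) in 20 mM HEPES pH 7.5, 10 mM MgCl2, 0.005% BSA, 2 mM DTT, 0.015% Brij-35. Probe displacement was read by HTRF (ex337, em620/665 nm); IC50 from four-parameter logistic fit.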

[2] = test system: JAK2, TYK2/p-STAT4 (Tyr693) activated by IL-12 in NK-92 cell line; test: IL-12-JAK2, TYK2/p-STAT4 (Tyr693) inhibition IC50 cellular assay; format: cell-based; conditions: NK92, Cellular assay; read-out: pSTAT4/IL-12 IC50
Procedure, shortened: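 NK-92 cells were starved overnight without IL-2 and preincubated 1 h at 37° C with compound (8 doses, 10000–0.61 nM, 4-fold, 0.2% DMSO). They were then stimulated with IL-12 (40 ng/ml final) for 30 min. Lysate p-STAT4 (Tyr693) was read by AlphaLISA SureFire; IC50 from four-parameter logistic fit.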

pSTAT5/GM-CSF = pSTAT5/GM-CSF cellular assay (JAK2 selectivity); format: cell-based; conditions: for Selectivity fold (TYK2/JAK2): pSTAT5/GM-CSF IC50 over pSTAT4/IL-12 IC50

T1 sequence (P29597 575-869): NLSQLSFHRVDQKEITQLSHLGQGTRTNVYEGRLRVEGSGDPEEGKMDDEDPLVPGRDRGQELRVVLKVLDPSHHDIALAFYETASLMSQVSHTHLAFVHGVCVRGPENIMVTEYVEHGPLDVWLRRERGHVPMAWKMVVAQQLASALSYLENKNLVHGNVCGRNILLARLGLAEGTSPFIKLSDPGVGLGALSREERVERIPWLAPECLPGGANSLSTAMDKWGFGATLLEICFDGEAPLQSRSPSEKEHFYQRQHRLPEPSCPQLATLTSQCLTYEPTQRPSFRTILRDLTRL

| IC50 [1] | IC50 [2] | IC50 (pSTAT5/GM-CSF) | Structure (SMILES) | Selectivity fold (TYK2/JAK2) (pSTAT5/GM-CSF) |
| --- | --- | --- | --- | --- |
| 0.096 nM | 15.2 nM | > 10000 nM | CC(=O)Nc1cc(Nc2cc(C(F)(F)F)cc(S(C)(=O)=O)c2)c(-c2ccn(C(C)C)n2)cn1 [Example M25, N-(5-(1-isopropyl-1H-pyrazol-3-yl)-4-((3-(methylsulfonyl)-5-(trifluoromethyl)phenyl)amino)pyridin-2-yl)acetamide] | >659 fold |
| 0.046 nM | 4.33 nM | > 10000 nM | CC(=O)Nc1cc(Nc2cc(OC(C)C)cc(S(C)(=O)=O)c2)c(-c2ccn(C(C)C)n2)cn1 [Example M26, N-(4-((3-isopropoxy-5-(methylsulfonyl)phenyl)amino)-5-(1-isopropyl-1H-pyrazol-3-yl)pyridin-2-yl)acetamide] | >2309 fold |
| 0.035 nM | 3.85 nM | > 10000 nM | COc1cc(Nc2cc(NC(C)=O)ncc2-c2ccn(C(C)C)n2)cc(S(C)(=O)=O)c1 [Example M27, N-(5-(1-isopropyl-1H-pyrazol-3-yl)-4-((3-methoxy-5-(methylsulfonyl)phenyl)amino)pyridin-2-yl)acetamide] | >2597 fold |
| 0.032 nM | 16.6 nM | > 10000 nM | CC(=O)Nc1cc(Nc2cc(OCCO)cc(S(C)(=O)=O)n2)c(-c2ccn(C(C)C)n2)cn1 [Example M28, N-(4-((4-(2-hydroxyethoxy)-6-(methylsulfonyl)pyridin-2-yl)amino)-5-(1-isopropyl-1H-pyrazol-3-yl)pyridin-2-yl)acetamide] | >601 fold |
| 0.049 nM | 11.2 nM | > 10000 nM | CC(=O)Nc1cc(Nc2cccc(S(C)(=O)=O)c2)c(-c2ccn(C3CCOC3)n2)cn1 (stereo not shown) [Example M30, N-(4-((3-(methylsulfonyl)phenyl)amino)-5-(1-(tetrahydrofuran-3-yl)-1H-pyrazol-3-yl)pyridin-2-yl)acetamide] | >892 fold |

Further lines, the molecule ahead of its results:

| Structure (SMILES) | IC50 [1] | IC50 [2] | IC50 (pSTAT5/GM-CSF) | Selectivity fold (TYK2/JAK2) (pSTAT5/GM-CSF) |
| --- | --- | --- | --- | --- |
| CC(=O)Nc1cc(Nc2cc(C)cc(S(C)(=O)=O)n2)c(-c2ccn(C3CCOC3)n2)cn1 (stereo not shown) [Example M31, N-(4-((4-methyl-6-(methylsulfonyl)pyridin-2-yl)amino)-5-(1-(tetrahydrofuran-3-yl)-1H-pyrazol-3-yl)pyridin-2-yl)acetamide] | 0.031 nM | 0.828 nM | 1420 nM | 1714 fold |
| CC(=O)Nc1cc(Nc2cc(OC(C)C)cc(S(C)(=O)=O)n2)c(-c2ccn([C@H]3CCOC3)n2)cn1 [Example M33, (S)-N-(4-((4-isopropoxy-6-(methylsulfonyl)pyridin-2-yl)amino)-5-(1-(tetrahydrofuran-3-yl)-1H-pyrazol-3-yl)pyridin-2-yl)acetamide] | 0.027 nM | 0.648 nM | > 10000 nM | >15432 fold |
| CC(=O)Nc1cc(Nc2cc(OC(C)C)cc(S(C)(=O)=O)n2)c(-c2ccn([C@@H]3CCOC3)n2)cn1 [Example M34, (R)-N-(4-((4-isopropoxy-6-(methylsulfonyl)pyridin-2-yl)amino)-5-(1-(tetrahydrofuran-3-yl)-1H-pyrazol-3-yl)pyridin-2-yl)acetamide] | 0.024 nM | 0.402 nM | > 10000 nM | >24875 fold |
| COc1cc(Nc2cc(NC(C)=O)ncc2-c2ccn([C@@H]3CCOC3)n2)nc(S(C)(=O)=O)c1 [Example M35, (R)-N-(4-((4-methoxy-6-(methylsulfonyl)pyridin-2-yl)amino)-5-(1-(tetrahydrofuran-3-yl)-1H-pyrazol-3-yl)pyridin-2-yl)acetamide] | 0.036 nM | 50.2 nM | > 10000 nM | >199 fold |
| CC(=O)Nc1cc(Nc2cccc(S(C)(=O)=O)n2)c(-c2cc(C)n(C)n2)cn1 [Example N1, N-(5-(1,5-dimethyl-1H-pyrazol-3-yl)-4-((6-(methylsulfonyl)pyridin-2-yl)amino)pyridin-2-yl)acetamide] | 0.077 nM | 0.247 nM | 2130 nM | 8635 fold |
